Laboratory results published in PubChem BioAssay (NCI).
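Interpolation was linear, between the two tested concentrations surrounding the appropriate level; five concentrations were tested over 48 hours in 96-well plates. TGI: total growth inhibition.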

Experiments:
Experiment in all cases: NCI anticancer screen, dose series, 48 h
786-0 renal = tested on: 786-0 renal
A498 renal = tested on: A498 renal
A549 NSCLC = tested on: A549 NSCLC
ACHN renal = tested on: ACHN renal
BT-549 breast = tested on: BT-549 breast
CAKI-1 renal = tested on: CAKI-1 renal
CCRF-CEM leukemia = tested on: CCRF-CEM leukemia
COLO 205 colon = tested on: COLO 205 colon
DU-145 prostate = tested on: DU-145 prostate
EKVX NSCLC = tested on: EKVX NSCLC
HCC-2998 colon = tested on: HCC-2998 colon
HCT-116 colon = tested on: HCT-116 colon
HCT-15 colon = tested on: HCT-15 colon
HOP-62 NSCLC = tested on: HOP-62 NSCLC
HOP-92 NSCLC = tested on: HOP-92 NSCLC
HS 578T breast = tested on: HS 578T breast
HT29 colon = tested on: HT29 colon
K-562 leukemia = tested on: K-562 leukemia
KM12 colon = tested on: KM12 colon
M14 melanoma = tested on: M14 melanoma
MCF7 breast = tested on: MCF7 breast
MDA-MB-231 breast = tested on: MDA-MB-231 breast
MDA-MB-435 = tested on: MDA-MB-435
MDA-N = tested on: MDA-N
MOLT-4 leukemia = tested on: MOLT-4 leukemia
NCI-H23 lung = tested on: NCI-H23 lung
NCI-H460 lung = tested on: NCI-H460 lung
NCI-H522 lung = tested on: NCI-H522 lung
NCI/ADR-RES ovarian = tested on: NCI/ADR-RES ovarian
OVCAR-4 ovarian = tested on: OVCAR-4 ovarian
OVCAR-5 ovarian = tested on: OVCAR-5 ovarian
OVCAR-8 ovarian = tested on: OVCAR-8 ovarian
RPMI-8226 leukemia = tested on: RPMI-8226 leukemia
RXF 393 renal = tested on: RXF 393 renal
SF-268 CNS = tested on: SF-268 CNS
SF-295 CNS = tested on: SF-295 CNS
SF-539 CNS = tested on: SF-539 CNS
SK-MEL-2 melanoma = tested on: SK-MEL-2 melanoma
SK-MEL-28 melanoma = tested on: SK-MEL-28 melanoma
SK-OV-3 ovarian = tested on: SK-OV-3 ovarian
SN12C renal = tested on: SN12C renal
SNB-19 CNS = tested on: SNB-19 CNS
SR leukemia = tested on: SR leukemia
SW-620 colon = tested on: SW-620 colon
T-47D breast = tested on: T-47D breast
TK-10 renal = tested on: TK-10 renal
U251 CNS = tested on: U251 CNS
UACC-257 melanoma = tested on: UACC-257 melanoma
UACC-62 melanoma = tested on: UACC-62 melanoma
UO-31 renal = tested on: UO-31 renal

For CCN(CC)CCNC(=O)c1cc2cc(NC(=O)c3cc4cc(N)ccc4[nH]3)ccc2[nH]1, the TGI (786-0 renal) was > 100 µM, the TGI (A498 renal) was > 100 µM and the TGI (A549 NSCLC) was > 100 µM. For the same molecule, the TGI (ACHN renal) was > 100 µM, the TGI (BT-549 breast) was > 100 µM and the TGI (CAKI-1 renal) was > 100 µM. It also gave a TGI (CCRF-CEM leukemia) of 38.9 µM, a TGI (COLO 205 colon) of 25.6 µM and a TGI (DU-145 prostate) of 47.1 µM. The TGI (EKVX NSCLC) was > 100 µM, the TGI (HCC-2998 colon) was 36.3 µM and the TGI (HCT-116 colon) was 79.7 µM. For the same molecule, the TGI (HCT-15 colon) was > 100 µM, the TGI (HOP-62 NSCLC) was > 100 µM and the TGI (HOP-92 NSCLC) was > 100 µM. For the same molecule, the TGI (HS 578T breast) was > 100 µM, the TGI (HT29 colon) was > 100 µM and the TGI (K-562 leukemia) was > 100 µM. For the same molecule, the TGI (KM12 colon) was 28 µM, the TGI (M14 melanoma) was 77.1 µM and the TGI (MCF7 breast) was 36.8 µM. The TGI (MDA-MB-231 breast) was 73.4 µM, the TGI (MDA-MB-435) was 58 µM and the TGI (MDA-N) was > 100 µM. The TGI (MOLT-4 leukemia) was 48.5 µM, the TGI (NCI-H23 lung) was > 100 µM and the TGI (NCI-H460 lung) was > 100 µM. For the same molecule, the TGI (NCI-H522 lung) was 46.7 µM, the TGI (NCI/ADR-RES ovarian) was > 100 µM and the TGI (OVCAR-4 ovarian) was 27.7 µM. The TGI (OVCAR-5 ovarian) was > 100 µM, the TGI (OVCAR-8 ovarian) was > 100 µM and the TGI (RPMI-8226 leukemia) was 74.5 µM. For the same molecule, the TGI (RXF 393 renal) was 61.3 µM, the TGI (SF-268 CNS) was > 100 µM and the TGI (SF-295 CNS) was > 100 µM. The TGI (SF-539 CNS) was 85.3 µM, the TGI (SK-MEL-2 melanoma) was > 100 µM and the TGI (SK-MEL-28 melanoma) was > 100 µM. For the same molecule, the TGI (SK-OV-3 ovarian) was > 100 µM, the TGI (SN12C renal) was > 100 µM and the TGI (SNB-19 CNS) was > 100 µM. The TGI (SR leukemia) was 55 µM, the TGI (SW-620 colon) was > 100 µM and the TGI (T-47D breast) was > 100 µM. For the same molecule, the TGI (TK-10 renal) was > 100 µM, the TGI (U251 CNS) was > 100 µM and the TGI (UACC-257 melanoma) was > 100 µM. The TGI (UACC-62 melanoma) was 59.3 µM and the TGI (UO-31 renal) was > 100 µM.
